What was measured:
A23187-induced ear edema = experiment: A23187 Ear Edema Model (murine ear edema protocol); assay type: in vivo, mouse (male CF-1); settings: 100 μg/ear topical in acetone; A23187 10 μg/ear; 6 h; 6 mm punch biopsy weight
Experimental: To measure anti-inflammatory activities of the investigational compounds the following standard murine ear edema protocol was used. Edema was induced by the calcium ionophore, A23187 (10 μg/ear) [Marks, F., Furstenberger, G., Kownatzki, E., Prostaglandin E Mediated Stimulation of Mouse Epidermis in vivo by Divalent Cation Ionophore A23187 and by Tumor Promotor TPA, Cancer Res., 41, 696-702 (1981)]. Male CF-1 (Charles River) 18-20 grams were used. Investigational compounds (in acetone at 100 μg/ear) were applied to one ear just prior to application of the inflammagen (A23187). Six hours after A23187 application, edema was determined by comparing the weights of 6 mm punch biopsies from control (solvent) and inflammagen-treated ears. Percent inhibition was calculated using standard equations.

Platelet phospholipase C = experiment: Platelet Phospholipase C Assay; assay type: biochemical; settings: 100,000×g supernatant extract of platelet cells; 3H phosphatidylinositol substrate; mantissa only, the power of ten is printed apart; read-out: PLC IC50
Experimental: Platelet phospholipase C was measured using a 100,000×g supernatant extract of platelet cells as the enzyme preparation. The assay mixture consisted of (in final concentrations): ^3 H myoinositol phosphatidylinositol, ([…], 0.1Ci), CaCl2 (5 mM), Tris acetate buffer (60 mM, pH 4.5-7.5), sodium deoxycholate (2 mg/ml), platelet supernatant protein heated at 100° C. for 5 min (1 mg/ml), all in a total volume of […].
The assay was performed according to the method of Rittenhouse [Rittenhouse, S., Preparation of Selectively Labeled Phosphoinositol and Assay of Phosphoinositol-specific Phospholipase C in Methods in Enzymology, Lands, W. and Smith, W., eds., 86, 3-11 (1982)]. The hydrolysis of substrate to water soluble product was calculated on the basis of the specific activity of the substrate. The activity of the compounds was expressed as the percent inhibition of control (no compound) PLC hydrolysis. […] Arachidonic acid is the precursor of inflammagens such as leukotrienes and prostaglandins which are involved in the mediation of the inflammatory process.

Compound | A23187 % inhibition (A23187-induced ear edema) [%] | IC50 (Platelet phospholipase C) [µM]
N#Cc1c(N)oc2c1c(Cc1ccccc1)c(O)c1ccccc12 [Example 1, 2-Amino-4-benzyl-3-cyano-5-hydroxynaphtho[1,2-b]furan] | 83 | 15
N#Cc1c(N)oc2c1c(Cc1ccccc1F)c(O)c1ccccc12 [Example 2, 2-amino-4-(2-fluoro)benzyl-3-cyano-5-hydroxynaphtho[1,2-b]furan] | 71 | 26
N#Cc1c(N)oc2c1c(Cc1ccc(F)cc1)c(O)c1ccccc12 [Example 4, 2-amino-4-(4-fluoro)benzyl-3-cyano-5-hydroxynaphtho[1,2-b]furan] | 58 | 120
COc1ccc2c(c1)c(O)c(Cc1ccccc1)c1c(C#N)c(N)oc12 [Example 11, 2-amino-4-benzyl-3-cyano-5-hydroxy-7-methoxynaphtho[1,2-b]furan] | 82 | 190
COc1ccc2c(O)c(Cc3ccccc3)c3c(C#N)c(N)oc3c2c1 [Example 12, 2-amino-4-benzyl-3-cyano-5-hydroxy-8-methoxynaphtho[1,2-b]furan] | – | 55
COc1ccc2c(O)c(Cc3ccccc3F)c3c(C#N)c(N)oc3c2c1 [Example 16, 2-amino-4-(2-fluoro)benzyl-3-cyano-5-hydroxy-8-methoxynaphtho[1,2-b]furan] | – | 56
